A short description of data set [1]: Serial arterial blood sampling and ^17O NMR spectroscopy of serum during and after 1 minute of ^17O2 delivery. The class given is in vivo, pig. On the procedure:
During imaging, arterial blood sampling was performed on several occasions. An optimized protocol was developed and repeated. An arterial catheter was placed under ultrasound guidance into the femoral artery in the large animal fluoroscopy suite. Approximately 2 cc of blood was collected over 3-5 seconds into each Vacutainer Serum Separator Tube (Becton-Dickinson, #367983) at a rate of one sample each 10 seconds for the first 12 samples and then 60 seconds each for six more samples. Four control samples were taken before the experiment began. The tubes used are designed to reseal immediately after needle puncture. Their ability to remain sealed was tested by taking several tubes at random, creating a strong negative pressure inside the tube with a vacuum pump attached to a needle, and then repeated puncture with larger diameter needles than used for blood sampling. The pressure inside the tubes was checked after over a dozen punctures and had changed less than 10%.
A concern is that water ^17O will exchange with ambient CO2 through bicarbonate ion, a very fast reaction when catalyzed by carbonic anhydrase as in whole blood (Mills G A, Urey H C. The Kinetics of Isotopic Exchange between Carbon Dioxide, Bicarbonate Ion, Carbonate Ion and Water. J Am Chem Soc 1940; 62 (5):1019-1026). To minimize this effect, serum was separated by centrifugation soon after the experiment. Tubes were then frozen at −20 C and kept sealed until the time of analysis. Centrifugation places a gel between the serum and red blood cells in these tubes to fully separate the two. This procedure serves to protect the samples in two ways. […]
An 11.7T Bruker DMX400 Avance Spectrometer equipped with a 1H/X nucleus decoupler probe tuned to ^17O was used to measure 1 mL of each sample loaded into 5 mm ID NMR tubes just before analysis. Spectra were recorded without lock at room temp. […]
Blood sampling was performed during scanning on two separate occasions. […] Serum concentration of H2^17O was calculated by integrating the H2^17O peak obtained by ^17O spectroscopy of the blood samples taken at the given time points. […]

The nature of data set [2]: T1ρ relaxivity in H2^17O doped phosphate buffered saline phantoms. The class given is physicochemical. The note with it: spin lock amplitude 100 Hz, 1.5T. Here is the method: The ability of the sequence to detect changes in H2^17O concentration was measured by imaging six 15 mL conical tubes filled with 1× Phosphate Buffered Saline doped with H2^17O (Isotec, Miamisberg, Ohio) in steps of 5 mM from 20 mM (natural abundance) to 45 mM. These tubes were sealed and placed into a 9 cm jar filled with water. A receive only loop coil was placed around the jar and used in combination with the body transmit coil. Cross-sectional images of the tubes were acquired with a spin lock amplitude of 100 Hz and spin lock times of 200, 400, 600, 800, and 1000 msec. Imaging parameters are: FoV 90 mm^2, ST 5 mm, TR/TE 10.4/5.2 ms, Matrix 128^2, BW 130 Hz/Px, α=180°.
The concentrations of the phantoms were determined experimentally according to the following equation:
[formula] Where fn is the natural abundance [H2^17O], S is the signal from a pixel or ROI with natural abundance (NA) [H2^17O] or [H2^17O] added (^17O) taken as a proton density weighted image to account for coil sensitivity or when T1ρ pre-encoded (T1ρ). R1ρ is the relaxivity due to H2^17O and TSL is the spin lock time.
FIG. 12 provides cross-sectional images of 15 mL conical tubes filled with phosphate buffered saline and doped with increasing amounts of H2^17O to concentrations from 20 mM (natural abundance) to 45 mM (25 mM added).

The conditions of data set [3]: measurements made in tissue phantoms; cited from earlier work.
In another data set the test system is pig brain. Briefly: Pulsed ^17O2 inhalation (2 breaths, 40% enrichment) with T1ρ-weighted MRI of pig brain at 1.5 Tesla. The class given is in vivo. The note with it: 70 Kg pig; ventricle signal normalized to whole brain. Here is the method:
To further test the apparatus 100, a 70 Kg Yorkshire pig was anesthetized with intramuscular doses of ketamine (25 mg/Kg) and xylazine (2.5 mg/Kg) and orally intubated. General anesthesia was maintained throughout the experiment with intravenous doses of ketamine (1-2 mg/Kg/hr) and diazepam (0.5-1 mg/Kg/hr). Once placed in the MRI scanner 114 in the prone position, the endotracheal tube was connected to the circuit and mechanical ventilation commenced in volume control mode with a tidal volume of 16.2 ml/Kg, a respiratory rate of 6 breaths/min, I:E ratio of 1:1 and zero end-expiratory pressure. After collecting baseline images on room air, the source valve was switched to 100% O2. After 5 minutes to allow for denitrogenation, further baseline images were obtained while breathing 100% oxygen. […]
Overlay of the signal decreases, ranging from 0% decrease to 1% decrease, an average of 40-50 seconds after the start of the ^17O2 breaths, as determined by indirect T1ρ imaging with a spin-lock sequence. […]
The time course of arterial ^17O2 concentrations, estimated from a model of alveolar gas dilution (appendix), is shown in FIG. 5a. […] Inspiratory tidal volume is measured from the calibrated output of the inhalation pump 102. […]

Regarding `[17OH2]` [H2^17O], the “delay between the start of ^17O2 delivery and the start of wash-in in arterial blood” value in data set [1] (19.8 kg pig, second experiment) was about 70 s; in data set [1] (40.8 kg pig, 80% N2/20% O2 (70% ^17O enriched) for 60 seconds, femoral artery serum), “about 90 seconds”. Further, the “time when recirculation begins” value in data set [1] (arterial blood sampling and analysis of mH2^17O content, pigs) was in the range of 60 to 80 s. Besides, in data set [2], the “R1ρ(100 Hz)” value turned out to be 1.37e-05 mM⁻¹ ms⁻¹. In addition, the “R1ρ, relaxation enhancement of tissue due to H2^17O” value in data set [3] is given as 5.91*10^−6 (μmol/g water)^−1 ms^−1.
Regarding `O=O` [^17O2], the “delay of decrease in scaled signal in the cerebral ventricle after the initial inhalation of ^17O2” value in the data set with pig brain is listed as “about 110 seconds”.

These data come from patent US8554305B2, “Method and apparatus for providing pulses inhalation of 17O2 for magnetic resonance imaging of cerebral metabolism” (The Trustees of the University of Pennsylvania, priority 2007, dated 2013).
